In ChEMBL document CHEMBL3611981, “Discovery of potent nitrotriazole-based antitrypanosomal agents: In vitro and in vivo evaluation” (Bioorg Med Chem, 2015):
Active and inactive are the calls of the source. No cut-off for these calls is given here.

Tests used:
[1] = system: Trypanosoma brucei rhodesiense; assay: Antiparasitic activity against trypomastigote stage of Trypanosoma brucei rhodesiense STIB 900 assessed as parasite growth inhibition after 72 hrs by Alamar blue assay; format: functional, organism-based; conditions: STIB 900, 72 h
[2] = Selectivity index, ratio of IC50 for rat L6 cells to IC50 for trypomastigote stage of Trypanosoma brucei rhodesiense STIB 900
Trypanosoma cruzi [3] = assay: Antiparasitic activity against amastigote stage of Trypanosoma cruzi Tulahuen C4 infected in rat L6 cells assessed as parasite growth inhibition after 96 hrs by beta-galactosidase reporter gene assay; format: functional, organism-based; conditions: Tulahuen C4, L6, 96 h
[4] = Selectivity index, ratio of IC50 for rat L6 cells to IC50 for amastigote stage of Trypanosoma cruzi Tulahuen C4 infected in rat L6 cells
Leishmania donovani [5] = assay: Antiparasitic activity against axenic amastigote stage of Leishmania donovani MHOM-ET-67/L82 assessed as parasite growth inhibition after 72 hrs by Alamar blue assay; format: functional, organism-based; conditions: MHOM-ET-67/L82, 72 h
[6] = Selectivity index, ratio of IC50 for rat L6 cells to IC50 for axenic amastigote stage of Leishmania donovani MHOM-ET-67/L82
L6 = assay: Cytotoxicity against rat L6 cells assessed as growth inhibition after 72 hrs by Alamar blue assay; format: cell-based; conditions: L6, 72 h
Trypanosoma cruzi [7] = assay: Potency index, ratio of benznidazole IC50 to compound IC50 for amastigote stage of Trypanosoma cruzi Tulahuen C4 infected in rat L6 cells; format: functional
Leishmania donovani [8] = assay: Antileishmanial activity against amastigote stage of Leishmania donovani infected in mouse peritoneal macrophages assessed as reduction in parasite burden after 96 hrs by Giemsa staining method; format: functional, organism-based
[9] = Cytotoxicity against mouse peritoneal macrophages; format: cell-based; conditions: Peritoneal macrophage cell
Leishmania donovani [10] = assay: Potency index, ratio of miltefosine IC50 to compound IC50 for axenic amastigote stage of Leishmania donovani MHOM-ET-67/L82; format: functional
[11] = Half life in human microsomes at 1 uM in absence of NADPH
[12] = Half life in human microsomes at 1 uM in presence of NADPH
[13] = Efflux ratio of apparent permeability across basolateral to apical side over apical to basolateral side in human Caco2 cells after 2 hrs; conditions: Caco-2
[14] = Prodrug conversion assessed as Trypanosoma brucei recombinant His-tagged type-1 nitroreductase-mediated drug metabolism by measuring NADH oxidation after 5 mins by spectrophotometric analysis; format: ADME; conditions: isolated protein
[15] = Prodrug conversion assessed as Trypanosoma cruzi recombinant type-1 nitroreductase-mediated drug metabolism by measuring NADH oxidation after 5 mins by spectrophotometric analysis; format: ADME; conditions: isolated protein
[16] = system: Trypanosoma brucei brucei; assay: Antiparasitic activity against wild type blood stream form of Trypanosoma brucei brucei after 3 days by Alamar blue assay; format: functional, organism-based; conditions: 72 h
[17] = system: Trypanosoma brucei brucei; assay: Antiparasitic activity against blood stream form of Trypanosoma brucei brucei overexpressing type-1 nitroreductase after 3 days by Alamar blue assay in absence of tetracycline; format: functional, organism-based; conditions: 72 h
[18] = system: Trypanosoma brucei brucei; assay: Antiparasitic activity against blood stream form of Trypanosoma brucei brucei overexpressing type-1 nitroreductase after 3 days by Alamar blue assay in presence of tetracycline; format: functional, organism-based; conditions: 72 h
[19] = system: Trypanosoma brucei brucei; assay: Ratio of IC50 for blood stream form of Trypanosoma brucei brucei overexpressing type-1 nitroreductase in absence of tetracycline to IC50 for blood stream form of Trypanosoma brucei brucei overexpressing type-1 nitroreductase in presence of tetracycline; format: functional
Trypanosoma cruzi [20] = assay: Antichagasic activity against trypomastigote stage of Trypanosoma cruzi Brazil infected in Balb/c mouse assessed as reduction in parasite load at 13 mg/kg/day, ip measured after 5 days by luciferase reporter gene assay; format: functional, organism-based
Mus musculus = assay: Toxicity in Balb/c mouse at 13 mg/kg/day, ip; format: organism-based; conditions: in vivo

Compound	IC50 [1] [µM]	selectivity ratio [2]	IC50 (Trypanosoma cruzi [3]) [µM]	selectivity ratio [4]	IC50 (Leishmania donovani [5]) [µM]	selectivity ratio [6]	IC50 (L6) [µM]	Ratio IC50 (Trypanosoma cruzi [7])	IC50 (Leishmania donovani [8]) [µM]	IC50 [9] [µM]	Ratio IC50 (Leishmania donovani [10])	Drug metabolism [14] [nmol/min/mg]	Drug metabolism [15] [nmol/min/mg]	IC50 [17] [µM]	IC50 [18] [µM]	Ratio IC50 [19]	also measured
O=C(Cn1cnc([N+](=O)[O-])n1)Nc1cccc(OCc2ccccc2)c1	4.9	14	0.028	2420	3.4	20	68	17									
O=C(Cn1cnc([N+](=O)[O-])n1)NC1CCN(Cc2ccccc2)CC1	12	9.6	8	14	133	< 1	114	0.28									
O=C(Cn1ccnc1[N+](=O)[O-])Nc1ccc(Oc2ccccc2)cc1	15		4.2	15	0.79	79	62	0.48	16	> 89	0.21						
O=C(Cn1cnc([N+](=O)[O-])n1)Nc1cccc(-c2ccccc2)c1							45										half-life at 1 µM [11]: 1.8 h; half-life at 1 µM [12]: 1.06 h
CC(C)NCC(O)COc1ccc(CC(N)=O)cc1 (centres undefined) [ATENOLOL]																	efflux ratio at 2 h [13]: 3.7
O=C(Cn1cnc([N+](=O)[O-])n1)Nc1ccc(Cc2ccccc2)cc1	2.1	17	0.068	528	1.2	31	36	34	> 30	> 89	0.12						
O=C(Cn1cnc([N+](=O)[O-])n1)Nc1ccc(Oc2ccccc2)cc1	2.7	34	0.065	1420	0.27	339	92	31	> 30	89	0.6	2931	815	2.34	1.37	1.7	IC50 [16]: 1.35 µM
CC(C)NCC(O)COc1cccc2ccccc12 (centres undefined) [PROPRANOLOL]																	efflux ratio at 2 h [13]: 3.1
O=C(Cn1ccnc1[N+](=O)[O-])Nc1ccc(Oc2ccc(F)cc2)cc1	13	9	3.3	37	0.29	418	123	0.61	14	> 84	0.55						
CC1CS(=O)(=O)CCN1/N=C/c1ccc([N+](=O)[O-])o1 (centres undefined) [NIFURTIMOX]														4.41	0.43	10.3	
O=C(Cn1ccnc1[N+](=O)[O-])Nc1ccc(Oc2ccc(Cl)cc2)cc1	2.6	50	2.6	49	0.14	937	127	0.78	15	> 81	1.2	3337	817	6.48	1.71	3.8	IC50 [16]: 4.72 µM
O=C(Cn1cnc([N+](=O)[O-])n1)Nc1ccc(Oc2ccc(F)cc2)cc1	2	35	0.036	1950	0.18	384	70	56	> 28	84	0.89	2702	516	3.67	0.77	4.8	IC50 [16]: 3.13 µM; Activity (Trypanosoma cruzi [20]): Active; Activity (Mus musculus): Non-toxic
O=C(Cn1cncn1)Nc1ccc(Oc2ccc(Cl)cc2)cc1	26		18	7.5	29	5	137										
O=C(Cn1cnc([N+](=O)[O-])n1)Nc1ccc(Oc2ccc(Cl)cc2)cc1	1.3	22	0.008	3620	0.034	853	29	254	> 27	80	4.8	2699	628	5.9	1.18	5	IC50 [16]: 5.09 µM; Activity (Trypanosoma cruzi [20]): Active; Activity (Mus musculus): Non-toxic
O=C(Cn1ccnc1[N+](=O)[O-])NCc1ccccc1 [BENZNIDAZOLE]												1540	680				Activity (Trypanosoma cruzi [20]): Active; Activity (Mus musculus): Non-toxic
O=C(Cn1cnc([N+](=O)[O-])n1)Nc1nccc(-c2ccccc2)n1	139	1.2	2.5	66	> 308		169	0.8									
O=C(Cn1cnc([N+](=O)[O-])n1)Nc1ccc(-c2ccc(Cl)cc2)cc1		140		2800	0.17	738		45	> 84	> 84	0.95	2492	585	0.69	0.85	0.8	IC50 [16]: 0.69 µM; Activity (Trypanosoma cruzi [20]): Active; Activity (Mus musculus): Non-toxic
COc1ccc2c(c1)[C@]13CCCC[C@@H]1[C@H](C2)N(C)CC3 [DEXTROMETHORPHAN]																	half-life at 1 µM [11]: 2.57 h; half-life at 1 µM [12]: 1.54 h
CCCCCCCCCCCCCCCCOP(=O)([O-])OCC[N+](C)(C)C [MILTEFOSINE]									6.89								
